One data set has as its system lesions of the stomach. As to the kind of experiment: anti-ulcer activity (protection from indomethacin-induced lesions of the stomach, oral). The class given is in vivo, male rats. Conditions: Rattus norvegicus, rats, p.o. 1 hour before and 2 hours after 20 mg/kg indomethacin p.o., dosage protecting 50% of the animals, read-out: Anti-ulcer ED 50. As for the experimental part: The experimental procedure described hereinafter was used to determine the anti-ulcer activity:
Groups each comprising 8 male rats with a body weight of 130-150 g are used for each dosage of a test substance. Before the beginning of the experiment the animals receive no food for 24 hours, but receive water ad libitum. Various dosages of the substances to be tested (suspended in 0.5% tragacanth) or the vehicle alone (controls) are administered twice orally, namely 1 hour before and 2 hours after the oral administration of 20 mg/kg of indomethacin. In the control animals this dosage of indomethacin leads to lesions of the stomach within 5 hours. The animals are sacrificed 6 hours after the first administration of the substance under investigation (or of the vehicle alone). The rats which remain protected from the occurrence of macroscopically visible lesions to the mucous membrane of the stomach are counted. The ED is that dosage of a test substance at which 50% of the animals are protected from the occurence of such lesions.

The nature of data set [1]: acute toxicity (single oral administration to mice). Conditions: mouse, in vivo, read-out: Toxicity LD 50. The text has this: In the following Table there are given for a series of compounds of formula I the results of the testing with respect to their anti-ulcer activity and to their gastric secretion-inhibiting activity. Moreover, this Table contains data concerning the acute toxicity (LD50 in the case of single oral administration to mice).

The test system of another data set is gastric acid secretion. Briefly: gastric acid secretion-inhibiting activity (4-methylhistamine-stimulated, Heidenhain pouch, oral). The following applies: Canis lupus familiaris, conscious beagle hounds, p.o., 50% inhibition of gastric acid production caused by i.v. 4-methylhistamine, read-out: Gastric acid secretion-inhibition ED 50. Format: in vivo. As for the experimental part:
The experimental procedure described hereinafter was used to determine the gastric acid secretion-inhibiting activity:
A part of the stomach fundus of female and male beagle hounds is separated from the remainder of the stomach in the form a pouch of the Heidenhain type (modification of the method described by Rudick et al. in J. Surgical Research 7, 383-398 (1967)). In the pouch there is fitted a steel cannula which is conducted externally through the abdominal wall. Before each experiment the animals receive no food for 18 hours, but receive water ad libitum. They are conscious and standing during the experiment and their gastric acid secretion is stimulated by the intravenous infusion of 4-methylhistamine, a selective agonist of the histamine H2 -receptors. The gastric acid production is determined in 15 minute fractions of the stomach pouch juice. As soon as the gastric acid production has a constant value, the substances to be tested are administered orally as a dry powder filled into gelatine capsules. The ED50 is that dosage of a test substance which brings about a 50% inhibition of the gastric acid production caused by 4-methylhistamine in the treated animals in comparison to the controls.

The values that follow come from patent US4981861A, “Tricyclic imidazole derivatives” (Hoffmann-La Roche Inc., priority 1984, dated 1991).

Turning to `CON=C1C(C)(C)c2cc3nc([S+]([O-])Cc4nccc(OC)c4C)[nH]c3cc2C1(C)C` (stereo not drawn) [H, 5,7-dihydro-2-[[(4-methoxy-3-methyl-2-pyridyl)methyl]sulfinyl]-5,5,7,7-tetramethylindeno[5,6-d]imidazol-6(lH)-one 0-methyl oxime], the values for the ED50 in the data set with lesions of the stomach and in the data set on gastric acid secretion were 5 mg/kg and 7.78 mg/kg, respectively. The LD50 in data set [1] fell in the range of 1250 to 2500 mg/kg.

On to `COc1c(C)cnc(C[S+]([O-])c2nc3cc4c(cc3[nH]2)C(C)(C)C(=O)C4(C)C)c1C` (stereo not drawn) [B, 5,7-dihydro-2-[[(4-methoxy-3,5-dimethyl-2-pyridyl)-methyl]sulfinyl]-5,5,7,7-tetramethylindeno[5,6-d]imidazol-6(lH)-one], for which the ED50 with lesions of the stomach is 2.3 mg/kg; in the data set with gastric acid secretion, 5.44 mg/kg. Moreover, the LD50 in data set [1] is greater than 5000 mg/kg.

As for `COc1c(C)cnc(CSc2nc3cc4c(cc3[nH]2)C(C)(C)C(=O)C4(C)C)c1C` [A, 5,7-dihydro-2-[[(4-methoxy-3,5-dimethyl-2-pyridyl)-methyl]thio]-5,5,7,7-tetramethylindeno[5,6-d]imidazol-6(lH)-one], the ED50 in the data set on lesions of the stomach stood at 2 mg/kg; with gastric acid secretion, 4.88 mg/kg. The LD50 in data set [1] was greater than 5000 mg/kg.

With `COc1ccnc(C[S+]([O-])c2nc3cc4c(cc3[nH]2)C(C)(C)C(=O)C4(C)C)c1C` (stereo not drawn) [D, 5,7-dihydro-2-[[(4-methoxy-3-methyl-2-pyridyl)-methyl]sulfinyl]-5,5,7,7-tetramethylindeno[5,6-d]imidazol-6(lH)-one], the results for the ED50 with lesions of the stomach and in the data set with gastric acid secretion were 1.3 mg/kg and 3.59 mg/kg, respectively. Also, in data set [1], the LD50 is greater than 5000 mg/kg.

On to `CON=C1C(C)(C)c2cc3nc(SCc4nccc(OC)c4C)[nH]c3cc2C1(C)C` [I, 5,7-dihydro-2-[[(4-methoxy-3-methyl-2-pyridyl)methyl]thio]-5,5,7,7-tetramethylindeno[5,6-d]imidazol-6(lH)-one 0-methyl oxime], for which the ED50 with lesions of the stomach was found to be 4 mg/kg; with gastric acid secretion it was 2.25 mg/kg. Further, the LD50 in data set [1] lay in the range of 1250 to 2500 mg/kg.

Take `COc1ccnc(C[S+]([O-])c2nc3cc4c(cc3[nH]2)OCO4)c1C` (stereo not drawn) [E, 6-[[(4-methoxy-3-methyl-2-pyridyl)methyl]sulfinyl]-5H-1,3-dioxolo[4,5-f]benzimidazole]: the ED50 came out at 4 mg/kg with lesions of the stomach and 1.79 mg/kg with gastric acid secretion. The LD50 in data set [1] was greater than 5000 mg/kg.

For `COc1ccnc(CSc2nc3cc4c(cc3[nH]2)C(C)(C)C(=O)C4(C)C)c1C` [C, 5,7-dihydro-2-[[(4-methoxy-3-methyl-2-pyridyl)methyl]thio]-5,5,7,7-tetramethylindeno[5,6-d]imidazol-6(lH)-one], the ED50 was determined as 1.2 mg/kg with lesions of the stomach and 2.56 mg/kg in the data set on gastric acid secretion. The LD50 in data set [1] was greater than 5000 mg/kg.

In the case of `COc1c(C)cnc(C[S+]([O-])c2nc3cc4c(cc3[nH]2)OCO4)c1C` (stereo not drawn) [F, 6-[[(4-methoxy-3,5-dimethyl-2-pyridyl)methyl]sulfinyl]-5H-1,3-dioxolo[4,5-f]benzimidazole], the ED50 in the data set on lesions of the stomach worked out at 6 mg/kg; in the data set with gastric acid secretion, 1.4 mg/kg. Also, in data set [1], the LD50 is greater than 5000 mg/kg.
